Results from patent US8084456B2, “Pyrazine-based tubulin inhibitors” (YM Biosciences Australia Pty Ltd, priority 2002, dated 2011).
pIC50: −log10 of the molar value.

Experiments:
[1] = system: DU145 (Prostate Cancer) cells; assay: Cellular growth assay (MTT), DU145; format: cell-based; conditions: Homo sapiens, DU-145, 40 hr incubation, read-out: DU145 (inhibition of 50% of cellular growth)
Protocol: (§1) K562 (Chronic Myeloid Leukemia), PC3 (Prostate Cancer), and DU145 (Prostate Cancer) were obtained from the American Type Culture Collection (ATCC). K562 was grown in RPMI, with 10% FBS with Glutamx added. DU145 cells were cultured in DMED, with 10% FBS and Glutamx and MEM non-essential amino acids added. PC3 cells were grown in F12K medium, with 10% FBS and Glutamx and MEM non-essential amino acids added. All cells were grown at 37° C. in 5% CO2.

Tubulin = Tubulin assay (turbidometric microtubule assembly); format: biochemical; conditions: at 50 μM, absorbance at 340 nm, 37° C.
Protocol: Turbidometric assays of microtubule assembly were performed by incubating microtubule protein in cuvettes at 37° C. in a thermostatically controlled spectrophotometer measuring the change in absorbance at 340 nm over time. The microtubule protein was incubated with the each test compound at 0° C. and polymerisation was initiated by addition of 1 mM GTP, prior to heating to 37° C.

[2] = system: K562 (Chronic Myeloid Leukemia) cells; assay: Cellular growth assay (MTT), K562; format: cell-based; conditions: Homo sapiens, 40 hr incubation, read-out: K562 (inhibition of 50% of cellular growth)
Protocol: as §1

[3] = system: PC3 (Prostate Cancer) cells; assay: Cellular growth assay (MTT), PC3; format: cell-based; conditions: Homo sapiens, PC-3, 40 hr incubation, read-out: PC3 (inhibition of 50% of cellular growth)
Protocol: as §1

TelJak3 = TelJak3 (Homo sapiens, UniProt P52333); assay: Cellular growth assay (MTT), BaF3 TEL/JAK3 cells; format: cell-based; conditions: 40 hr incubation, read-out: TelJak3 (inhibition of 50% of cellular growth)
TelJak3, sequence (P52333 with tags, fused parts or gaps): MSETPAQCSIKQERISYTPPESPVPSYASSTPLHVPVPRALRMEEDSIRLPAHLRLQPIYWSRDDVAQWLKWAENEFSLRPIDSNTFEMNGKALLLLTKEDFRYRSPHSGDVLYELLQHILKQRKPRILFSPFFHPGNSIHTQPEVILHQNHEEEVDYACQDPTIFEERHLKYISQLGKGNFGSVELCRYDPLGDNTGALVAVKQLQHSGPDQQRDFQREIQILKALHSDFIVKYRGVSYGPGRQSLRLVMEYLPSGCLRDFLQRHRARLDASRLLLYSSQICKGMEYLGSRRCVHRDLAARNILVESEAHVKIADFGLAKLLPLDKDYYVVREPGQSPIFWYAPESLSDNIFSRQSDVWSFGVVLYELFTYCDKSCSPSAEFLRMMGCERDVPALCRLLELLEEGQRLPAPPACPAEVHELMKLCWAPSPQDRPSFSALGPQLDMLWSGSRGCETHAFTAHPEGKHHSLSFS

TelJak2 = TelJak2 (Homo sapiens, UniProt O60674); assay: Cellular growth assay (MTT), BaF3 TEL/JAK2 cells; format: cell-based; conditions: 40 hr incubation, read-out: TelJak2 (inhibition of 50% of cellular growth)
TelJak2, sequence (O60674 with tags, fused parts or gaps): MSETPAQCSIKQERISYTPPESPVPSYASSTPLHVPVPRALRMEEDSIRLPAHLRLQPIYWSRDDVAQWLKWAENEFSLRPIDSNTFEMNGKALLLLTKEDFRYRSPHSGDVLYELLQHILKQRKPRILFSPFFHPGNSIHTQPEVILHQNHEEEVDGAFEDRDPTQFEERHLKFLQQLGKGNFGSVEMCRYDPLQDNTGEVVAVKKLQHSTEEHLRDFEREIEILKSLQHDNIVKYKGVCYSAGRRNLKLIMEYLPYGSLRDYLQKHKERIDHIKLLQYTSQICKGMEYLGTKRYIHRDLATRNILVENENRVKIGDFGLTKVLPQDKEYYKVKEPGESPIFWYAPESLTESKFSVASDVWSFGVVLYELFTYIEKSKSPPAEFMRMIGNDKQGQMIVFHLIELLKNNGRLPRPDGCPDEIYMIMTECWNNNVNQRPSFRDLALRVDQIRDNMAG

SMILES | pIC50 [1] | Tubulin (inhibition of tubulin polymerisation) (Tubulin) | pIC50 [2] | pIC50 [3] | pIC50 (TelJak3) | pIC50 (TelJak2)
CCCC(Nc1cncc(-c2ccc(O)c(OC)c2)n1)c1ccccc1 (stereo not drawn) | ≥ 4.70 | + (inhibited tubulin polymerisation by greater than 50% at 50 μM) | ≥ 4.70 | ≥ 4.70 | ≥ 4.70 | ≥ 4.70
CCCC(Nc1cncc(-c2ccc(O)c(OC)c2)n1)c1ccc(F)cc1 (stereo not drawn) | ≥ 4.70 | + (inhibited tubulin polymerisation by greater than 50% at 50 μM) | ≥ 4.70 | < 4.70 | ≥ 4.70 | ≥ 4.70
CCCC(Nc1cncc(-c2ccc(O)c(OC)c2)n1)c1ccc(Cl)cc1 (stereo not drawn) | ≥ 4.70 | + (inhibited tubulin polymerisation by greater than 50% at 50 μM) | ≥ 4.70 | ≥ 4.70 | ≥ 4.70 | ≥ 4.70
CCCC(Nc1cncc(-c2ccc(O)c(OC)c2)n1)c1ccc(C)cc1 (stereo not drawn) | ≥ 4.70 | + (inhibited tubulin polymerisation by greater than 50% at 50 μM) | ≥ 4.70 | ≥ 4.70 | ≥ 4.70 | ≥ 4.70
CCCC(Nc1cncc(-c2ccc(O)c(OC)c2)n1)c1ccc(OC)cc1 (stereo not drawn) | ≥ 4.70 | + (inhibited tubulin polymerisation by greater than 50% at 50 μM) | ≥ 4.70 | ≥ 4.70 | ≥ 4.70 | ≥ 4.70
CCCC(Nc1cncc(-c2ccc(O)c(OC)c2)n1)c1cccc(Cl)c1 (stereo not drawn) | ≥ 4.70 | + (inhibited tubulin polymerisation by greater than 50% at 50 μM) | ≥ 4.70 | ≥ 4.70 | ≥ 4.70 | ≥ 4.70
CCCC(Nc1cncc(-c2ccc(O)c(OC)c2)n1)c1cccc(F)c1 (stereo not drawn) | ≥ 4.70 | + (inhibited tubulin polymerisation by greater than 50% at 50 μM) | ≥ 4.70 | ≥ 4.70 | ≥ 4.70 | ≥ 4.70
CCCC(Nc1cncc(-c2ccc(O)c(OC)c2)n1)c1cccc(O)c1 (stereo not drawn) | < 4.70 | + (inhibited tubulin polymerisation by greater than 50% at 50 μM) | ≥ 4.70 | < 4.70 | ≥ 4.70 | ≥ 4.70
CCCC(Nc1cncc(-c2ccc(O)c(OC)c2)n1)c1cccc(C)c1 (stereo not drawn) | ≥ 4.70 | + (inhibited tubulin polymerisation by greater than 50% at 50 μM) | ≥ 4.70 | ≥ 4.70 | ≥ 4.70 | ≥ 4.70
CCCC(Nc1cncc(-c2ccc(O)c(OC)c2)n1)c1cc(OC)cc(OC)c1 (stereo not drawn) | ≥ 4.70 | + (inhibited tubulin polymerisation by greater than 50% at 50 μM) | ≥ 4.70 | ≥ 4.70 | ≥ 4.70 | ≥ 4.70
CCCC(Nc1cncc(-c2ccc(OC)c(OC)c2)n1)c1ccccc1 (stereo not drawn) | ≥ 4.70 | + (inhibited tubulin polymerisation by greater than 50% at 50 μM) | ≥ 4.70 | ≥ 4.70 | ≥ 4.70 | ≥ 4.70
CCCC(Nc1cncc(-c2ccc3c(c2)OCO3)n1)c1ccccc1 (stereo not drawn) | ≥ 4.70 | + (inhibited tubulin polymerisation by greater than 50% at 50 μM) | ≥ 4.70 | ≥ 4.70 | ≥ 4.70 | ≥ 4.70
CCCC(Nc1cncc(-c2ccc(O)c(OC)c2)n1)c1c(F)cccc1Cl (stereo not drawn) | ≥ 4.70 | + (inhibited tubulin polymerisation by greater than 50% at 50 μM) | ≥ 4.70 | ≥ 4.70 | ≥ 4.70 | ≥ 4.70
CCCC(Nc1cncc(-c2ccc(O)c(OC)c2)n1)c1ccc(C(F)(F)F)cc1 (stereo not drawn) | < 4.70 | − (did not inhibit tubulin polymerisation by 50% at 50 μM) | < 4.70 | < 4.70 | < 4.70 | < 4.70
CCCC(Nc1cncc(-c2ccc(O)c(OC)c2)n1)c1cccnc1 (stereo not drawn) | ≥ 4.70 | + (inhibited tubulin polymerisation by greater than 50% at 50 μM) | ≥ 4.70 | ≥ 4.70 | ≥ 4.70 | ≥ 4.70
CCC[C@H](Nc1cncc(-c2ccc(O)c(OC)c2)n1)c1cccc(F)c1 | ≥ 4.70 | + (inhibited tubulin polymerisation by greater than 50% at 50 μM) | ≥ 4.70 | ≥ 4.70 | ≥ 4.70 | ≥ 4.70

SMILES | pIC50 [1] | Tubulin (inhibition of tubulin polymerisation) (Tubulin) | pIC50 [2] | pIC50 [3] | pIC50 (TelJak3) | pIC50 (TelJak2)
CCCC(Nc1cncc(-c2ccc(O)c(OC)c2)n1)c1cccc(C(F)(F)F)c1 (stereo not drawn) | ≥ 4.70 | + (inhibited tubulin polymerisation by greater than 50% at 50 μM) | ≥ 4.70 | ≥ 4.70 | ≥ 4.70 | ≥ 4.70
COc1cc(-c2cncc(NC(CCN3CCN(C)CC3)c3ccccc3)n2)ccc1O (stereo not drawn) | ≥ 4.70 | + (inhibited tubulin polymerisation by greater than 50% at 50 μM) | ≥ 4.70 | ≥ 4.70 | ≥ 4.70 | ≥ 4.70
CCCC(Nc1cncc(-c2ccc(O)c(OC)c2)n1)c1cc(C)ccc1C (stereo not drawn) | ≥ 4.70 | + (inhibited tubulin polymerisation by greater than 50% at 50 μM) | ≥ 4.70 | ≥ 4.70 | ≥ 4.70 | ≥ 4.70
CCCC(Nc1cncc(-c2ccc(O)c(OC)c2)n1)c1ccc(OC)nc1 (stereo not drawn) | ≥ 4.70 | + (inhibited tubulin polymerisation by greater than 50% at 50 μM) | ≥ 4.70 | < 4.70 | ≥ 4.70 | ≥ 4.70
CCCC(Nc1cncc(-c2ccc(NC(C)=O)c(OC)c2)n1)c1ccc(F)cc1 (stereo not drawn) | ≥ 4.70 | + (inhibited tubulin polymerisation by greater than 50% at 50 μM) | ≥ 4.70 | ≥ 4.70 | ≥ 4.70 | ≥ 4.70
CCCC(Nc1cncc(-c2ccc(O)c(OC)c2)n1)c1cccc(C(=O)OC)c1 (stereo not drawn) | ≥ 4.70 | + (inhibited tubulin polymerisation by greater than 50% at 50 μM) | ≥ 4.70 | ≥ 4.70 | ≥ 4.70 | ≥ 4.70
CCCC(Nc1cncc(-c2ccc(O)c(OC)c2)n1)c1cccc(NC(=O)c2cccnc2)c1 (stereo not drawn) | ≥ 4.70 | + (inhibited tubulin polymerisation by greater than 50% at 50 μM) | ≥ 4.70 | ≥ 4.70 | ≥ 4.70 | ≥ 4.70
CCCC(Nc1cncc(-c2ccc(O)c(OC)c2)n1)c1cc(F)cc(F)c1 (stereo not drawn) | < 4.70 | + (inhibited tubulin polymerisation by greater than 50% at 50 μM) | ≥ 4.70 | < 4.70 | ≥ 4.70 | ≥ 4.70
CCCC(Nc1cncc(-c2ccc(O)c(OC)c2)n1)c1cncc(C)c1 (stereo not drawn) | < 4.70 | + (inhibited tubulin polymerisation by greater than 50% at 50 μM) | ≥ 4.70 | ≥ 4.70 | ≥ 4.70 | ≥ 4.70
CCC[C@H](Nc1cncc(-c2ccc(N)c(OC)c2)n1)c1ccccc1 | ≥ 4.70 | + (inhibited tubulin polymerisation by greater than 50% at 50 μM) | ≥ 4.70 | ≥ 4.70 | ≥ 4.70 | ≥ 4.70
CCCC(Nc1cncc(-c2ccc(N)c(OC)c2)n1)c1cccnc1 (stereo not drawn) | ≥ 4.70 | + (inhibited tubulin polymerisation by greater than 50% at 50 μM) | ≥ 4.70 | ≥ 4.70 | ≥ 4.70 | ≥ 4.70
CCCC(Nc1cncc(-c2ccc(O)c(OC(C)C)c2)n1)c1cccnc1 (stereo not drawn) | ≥ 4.70 | + (inhibited tubulin polymerisation by greater than 50% at 50 μM) | ≥ 4.70 | ≥ 4.70 | ≥ 4.70 | ≥ 4.70
COCCC(Nc1cncc(-c2ccc(O)c(OC)c2)n1)c1ccccc1 (stereo not drawn) | ≥ 4.70 | + (inhibited tubulin polymerisation by greater than 50% at 50 μM) | ≥ 4.70 | ≥ 4.70 | ≥ 4.70 | ≥ 4.70
CCCC(Nc1cnc(C)c(-c2ccc(N)c(OC)c2)n1)c1ccccc1 (stereo not drawn) | ≥ 4.70 | + (inhibited tubulin polymerisation by greater than 50% at 50 μM) | ≥ 4.70 | ≥ 4.70 | ≥ 4.70 | ≥ 4.70
CCCC(Nc1nc(-c2ccc(N)c(OC)c2)cnc1C)c1ccccc1 (stereo not drawn) | ≥ 4.70 | + (inhibited tubulin polymerisation by greater than 50% at 50 μM) | ≥ 4.70 | ≥ 4.70 | ≥ 4.70 | ≥ 4.70
